From US20110020312A1, “METHODS FOR TREATMENT OF METABOLIC DISORDERS USING EPIMETABOLIC SHIFTERS, MULTIDIMENSIONAL INTRACELLULAR MOLECULES, OR ENVIRONMENTAL INFLUENCERS” (priority 2009, published 2011)

Columns and labels:
[1] = tested on: SkBr-3 cells; assay: Real-time PCR Apoptosis Array; format: cell-based, human
Experimental: Changes in mRNA levels were evaluated using real-time PCR quantification to assess mRNA levels in pre-selected subsets containing […] pathway specific targets.
For the interpretation of mRNA results, the genes that were altered in their mRNA transcription by a two-fold level were identified and evaluated. The level of gene transcription to produce mRNA only provides a rough estimate of potential changes in the level of the expressed protein. The skilled artisan will appreciate that each mRNA may have different rates at which it is degraded or its translation inefficiently, thus resulting in differing amounts of protein.
The assay method of RT-PCR was utilized to provide a measure of mRNA level changes to a total of 84 apoptotic pathway related proteins.

[2] = tested on: Pancreatic Cancer Cells (PaCa2); assay: Real-time PCR Angiogenesis Array; format: cell-based; conditions: 100 uM Q10, various times
Experimental: Experiments were carried out essentially as described above.

[3] = tested on: Succinate Dehydrogenase (SDH) Subunit B; assay: Western blot, Succinate Dehydrogenase B in mitochondrial preparations; format: cell-based; conditions: for Succinate Dehydrogenase B Average Normalized Volume: NCIE0808 Mitopreps
Experimental: The above blots were stripped by incubating for 30 minutes with methanol, followed by two 10 minute washes with TBS-T, then 30 minutes of incubation with Stripping buffer at 50 deg C., and followed by two washes with 100 ml or more of TBS-T for 30′ each. The blots were scanned in laser scanner to check for complete stripping. The blots were activated with methanol for 5 seconds, washed with water for 5 minutes, and TBST for 15 minutes. The blots were blocked for 1 hour with 5% blocking reagent in TBS-T at room temperature and then washed 3 times with TBS-T (1×-15′; 2×5′ each) and probed with the primary antibody for PKM2, SDHB or SDHC in 5% BSA in TBS-T by incubation overnight at 4 deg C. with gentle shaking. The primary antibody for SDHC (ABNOVA H00006391-MO2; antimouse) was at 1:500 dilution. The primary antibody for SDHB was from Abcam ab4714-200; antimouse; at 1:1000 dilution. The primary antibody for Pyruvate Kinase M2 (PKM2) was from Novus Biologicals H00005315-D0IP; antirabbit; at 1:500 dilution. After incubation with primary antibodies, the membranes were washed 3 times with TBS-T (1×-15′; 2×5′ each) and probed with the secondary antibody (SDHB & C antimouse; and PKM2 antirabbit; 1:10,000 dilution) for 1 h on the orbital tilting shaker at room temperature. After 1 h of incubation, the blots were washed 3 times with TBS-T (1×-15′; 2×5′ each) and incubated with ECF reagent for 5 minutes and then each blot scanned with 5100 Fuji Laser scanner at 25 uM resolution, 16 bit, green laser, at 400V and at 500 V.

[4] = tested on: HDFa cells; assay: Extracellular acidification rate (ECAR), SeaHorse XF analyzer; format: cell-based, human
Description: Environmental influencers (e.g., MIMs or Epi-shifters) may also be identified by changes in cellular energetics. One example of the measurement of cellular energetics are the real-time measures of the consumption of molecular oxygen and/or the change in pH of the media of a cell culture. For example, the ability of a potential epi-shifter to modulate the metabolic state of a cell may be analyzed using, for example, the XF24 Analyzer (Seahorse, Inc.). This technology allows for real time detection of oxygen and pH changes in a monolayer of cells in order to evaluate the bioenergetics of a cell microenvironment. The XF24 Analyzer measures and compares the rates of oxygen consumption (OCR), which is a measure of aerobic metabolism, and extracellular acidification (ECAR), which is a measure of glycolysis, both key indicators of cellular energetics.
(SeaHorse Biosciences Inc, North Billerica, Mass.).
In this experiment, the OCR and extracellular acidification rate (ECAR) in normal cells lines were obtained in the presence and absence of CoQ10 to determine baseline values. It was observed that in its native nutrient environment, the basal OCR rates in normal cells lines are different, and are usually a function of the physiological roles of the cells in the body.
Table 51 below describes the ECAR values (mpH/min) in HDFa cells in the presence or absence of CoQ10 under normoxic and hypoxic conditions at 5.5 mM and 22 mM glucose.

[5] = tested on: HK-2 cells; assay: Diabetes PCR array in cell model for diabetes (22 mM glucose); format: cell-based, human
Experimental: The HK-2 and HASMC cells are normally maintained in culture at 5.5 mM glucose, which is a concentration that corresponds to a range considered normal in human blood. However, in order to simulate a diabetic environment, both cell lines were subsequently maintained at 22 mM glucose, which corresponds to the range observed in human blood associated with chronic hyperglycemia. The cells were subsequently allowed to propagate over 3 passages so that the intracellular regulation processes were functionally adapted to mimic a diabetic state. The choice of cell line was based on the physiologic influence of diabetes on renal dysfunction and progression to end-stage renal disease (ESRD) in addition to the progressive pathophysiology of a compromised cardiovascular function.
The Diabetes PCR array (SABiosciences) offers a screen for 84 genes simultaneously.
A stringent analysis of the Real time PCR data of the HK-2 samples on the Diabetes Arrays (Cat # PAHS-023E, SABiosciences Frederick Md.) was made to exclude all results where gene regulation was not at least a two-fold regulation over HK-2 normal untreated cells with a p value of less than 0.05.

[6] = cited from earlier work

SMILES: COC1=C(OC)C(=O)C(C/C=C(\C)CC/C=C(\C)CC/C=C(\C)CC/C=C(\C)CC/C=C(\C)CC/C=C(\C)CC/C=C(\C)CC/C=C(\C)CC/C=C(\C)CCC=C(C)C)=C(C)C1=O [Q10, Coenzyme Q10]
- mRNA's being affected (Apoptosis array) ([1]; Q10 (24 hr)): Bcl2, Bcl2L1, Bcl2L11, Birc6, Bax, Xiap, Hprt1, Apaf1, Ab11, Braf
- Bcl-xl mRNA level ([1]; one of the highest): significant up-regulation
- genes modulated by Q10 treatment (Angiogenesis arrays) [2]: AKT1, ANGPTL4, ANGPEP, CCL2, CDH4, CXCL1, EDG1, EFNA3, EFNB2, EGF, FGF1, ID3, IL1B, 1L8, KDR, NRP1, PECAM1, PROK2, SERPINF1, SPHK1, STAB1, TGFB1, VEGFA and VEGFB
- Succinate Dehydrogenase B Average Normalized Volume ([3]; 50 uM, 6 h): 1077
- Succinate Dehydrogenase B Average Normalized Volume ([3]; 100 uM, 3 h): 964
- Succinate Dehydrogenase B Average Normalized Volume ([3]; 100 uM, 6 h): 934
- SDH protein levels in the mitochondrion ([3]; mitochondrial preparations of cancer cells): increase
- ECAR ([4]; high glucose hypoxic conditions, to value of untreated normoxic conditions): lowering of elevated ECAR
- ECAR values ([4]; normal cells, normoxic and hypoxic, 5.5 mM and 22 mM glucose): minimal influence
- CEACAM1 RNA transcript ([5]; HK2(H) cells, particularly with 100 μM Coenzyme Q10): highly upregulated
- insulin receptor (INSR) expression ([5]; diabetic HK-2 cells): altered
- solubility in water [6]: insoluble in water
